Experimental data reported in paper PMC12396409, “Screening and hit evaluation of a microbial metabolite library against the pathogenic Plasmodium falciparum and Toxoplasma gondii parasites” (International Journal for Parasitology: Drugs and Drug …, 2025).
Where two headings read alike, the source gives them in different places.

Key:
[1] = test system: P. falciparum 3D7 parasites; test: P. falciparum growth inhibition assay, 1-cycle (72 h treatment), SYBR DNA staining (library screen at 2 μg/mL and dose-response); format: cell-based, Plasmodium falciparum; details: for activity at 2 µg/mL: Plasmodium falciparum, 3D7; P. falciparum, 2 μg/mL, 72 h; read-out: 1) Growth (%) at 72 h
[2] = test system: P. falciparum 3D7 parasites; test: P. falciparum growth inhibition assay, 2-cycle (120 h treatment), delayed-death screen and dose-response; format: cell-based, Plasmodium falciparum; details: for 3) Fold change (72 h/120 h) / 2) Growth (%) at 120 h: P. falciparum, 2 μg/mL; for 3) Fold change (72 h/120 h): growth at 72 h / growth at 120 h; for activity at 2 µg/mL: Plasmodium falciparum, 3D7; P. falciparum, 2 μg/mL, 120 h; read-out: 2) Growth (%) at 120 h
[3] = P. falciparum, 72 h, 2 μg/mL, mean of both replicates, growth (% of control)
[4] = Plasmodium falciparum, 3D7, 72 h treatment, mean ± S.D., n ≥ 3, read-out: IC50 (μM), P. falciparum
[5] = 3D7, 72 h treatment, mean ± S.D., n ≥ 3, read-out: IC50 (μM), P. falciparum
[6] = 72 h treatment, read-out: IC50, P. falciparum

## Oc1cc(O)cc(O)c1 [Phloroglucinol]
[1]
  activity at 2 µg/mL: 51.2%
[2]
  3) Fold change (72 h/120 h): 3.9
  activity at 2 µg/mL: 13.2%

## CC[C@H]1O[C@]2(CC[C@@H]1C)C[C@@H]1C[C@@H](C/C=C(\C)C[C@@H](C)/C=C/C=C3\CO[C@@H]4C(=NO)C(C)=C[C@@H](C(=O)O1)[C@]34O)O2 [Milbemycin A4 oxime]
[1]; P. falciparum, 2 μg/mL, 72 h
  1) Growth (%) at 72 h: 22.48%
[1]; [3]
  Mean: 22.48
[2]
  2) Growth (%) at 120 h: 12.31%
  3) Fold change (72 h/120 h): 1.8

## Milbemycin oxime [reference compound]
[1]; P. falciparum, 2 μg/mL, 72 h
  1) Growth (%) at 72 h: 23.75%
[2]
  2) Growth (%) at 120 h: 3.08%
  3) Fold change (72 h/120 h): 7.7

## CCCC(=O)O[C@H]1[C@H](C)O[C@@H](O[C@H]2[C@H](N(C)C)[C@@H](O)[C@H](O[C@H]3[C@@H](CC=O)C[C@@H](C)[C@@H](O)/C=C/C=C/C[C@@H](C)OC(=O)C[C@@H](O)[C@@H]3OC)O[C@@H]2C)C[C@@]1(C)O [Leucomycin A5]
[1]; P. falciparum, 2 μg/mL, 72 h
  1) Growth (%) at 72 h: 66.05%
[2]
  2) Growth (%) at 120 h: 12.18%
  3) Fold change (72 h/120 h): 5.4

## CC(=O)O[C@H]1C[C@@]2(C)[C@@H](CC[C@H]3[C@@]4(C)C=CC(=O)[C@@H](C)[C@@H]4[C@H](OC(C)=O)C(=O)[C@@]32C)/C1=C(\CCC=C(C)C)C(=O)O [Helvolic acid]
[1]
  activity at 2 µg/mL: 56.7%
[2]
  3) Fold change (72 h/120 h): 7.0
  activity at 2 µg/mL: 8.14%

## CCC[C@@H]1C[C@@H](C(=O)N[C@@H]([C@H]2O[C@H](SC)[C@H](O)[C@@H](O)[C@H]2O)[C@@H](C)O)N(C)C1 [Lincomycin, reference compound]
[1]
  activity at 2 µg/mL: 54.4%
[2]
  3) Fold change (72 h/120 h): 3.8
  activity at 2 µg/mL: 14.1%

## CC[C@H](C)[C@H]1OC(=O)[C@H](Cc2ccccc2)N(C)C(=O)[C@@H](C(C)C)OC(=O)[C@H](Cc2ccccc2)N(C)C(=O)[C@@H](C(C)C)OC(=O)[C@H](Cc2ccccc2)N(C)C1=O [Beauvericin A]
[1]; Plasmodium falciparum, 3D7, 72 h treatment, read-out: IC50, P. falciparum
  IC50: 0.33 µM
[1]; [4]
  IC50: 0.326 ± 0.095 µM

## C/C=C(/NC(=O)c1csc(-c2csc(-c3ccc4c(n3)-c3csc(n3)C(C(C)OC)NC(=O)c3csc(n3)C(C(C)(C)O)NC(=O)c3csc(n3)/C(=C\C)NC(=O)C(C(C)O)NC(=O)c3csc-4n3)n2)n1)C(=O)NCC(C)O (stereo not shown) [Thiocillin II]
[1]; [5]
  IC50: 0.161 ± 0.038 µM
[1]; [6]
  IC50: < 0.2 µM

## CC[C@H]1/C=C/C=C/C[C@@H](C)[C@H](O)[C@@](C)(O)C(=O)[C@@H](C)[C@H](O)[C@@H](C)C(=O)[C@@H](C)[C@H](O)[C@@H](C)/C=C/C(=O)O[C@H]2C[C@@]3(CC[C@H](C)[C@H](C[C@@H](C)O)O3)O[C@@H](CC1)[C@H]2C [Oligomycin D]
[1]; P. falciparum, 2 μg/mL, 72 h
  1) Growth (%) at 72 h: 21.67%
[1]; [3]
  Mean: 21.67
[2]
  2) Growth (%) at 120 h: 14.87%
  3) Fold change (72 h/120 h): 1.5

## CC1=C[C@H]2C(=O)O[C@H]3C[C@@H](C/C=C(\C)C[C@@H](C)/C=C/C=C4\CO[C@H]([C@@H]1O)[C@@]42O)O[C@]1(C3)C[C@H](O)[C@H](C)[C@@H](/C(C)=C/C(C)C)O1 [Nemadectin]
[1]; P. falciparum, 2 μg/mL, 72 h
  1) Growth (%) at 72 h: 21.98%
[1]; [3]
  Mean: 21.98
[2]
  2) Growth (%) at 120 h: 11.78%
  3) Fold change (72 h/120 h): 1.9

## CC[C@H](C)[C@H]1O[C@]2(CC[C@@H]1C)C[C@@H]1C[C@@H](C/C=C(\C)[C@@H](O[C@H]3C[C@H](OC)[C@@H](O)[C@H](C)O3)[C@@H](C)/C=C/C=C3\CO[C@@H]4[C@H](O)C(C)=C[C@@H](C(=O)O1)[C@]34O)O2 [Ivermectin B1a monosaccharide]
[1]
  Mean: 49.58

## Bischloroanthra-benzoxocinone
[1]; [3]
  Mean: 31.15

## CC1=C[C@H]2[C@H](O)[C@H](O)CC[C@H]2[C@@](C)(C(O)=C2C(=O)CNC2=O)[C@@H]1CCC(C)C(O)/C(C)=C/CC(O)/C=C/C(C)C(O)/C=C/CC(O)/C(C)=C/CC(O)CC1CCCN1C(=N)N (stereo partly shown) [Lydicamycin]
[1]; [3]
  Mean: 36.70

## CN(C)[C@@H]1C(O)=C(C(N)=O)C(=O)[C@@]2(O)C(O)=C3C(=O)c4c(O)cccc4[C@@](C)(O)[C@H]3[C@H](O)[C@@H]12 [Oxytetracycline, reference compound]
[1]
  activity at 2 µg/mL: 47.4%
[2]
  3) Fold change (72 h/120 h): 3.1
  activity at 2 µg/mL: 15.2%

## CCCC[C@H](C)[C@@H]1CC(=O)N[C@@H](Cc2ccccc2)C(=O)N[C@@H](C)C(=O)N[C@H]([C@@H](C)CC)C(=O)O1 [Beauveriolide III]
[1]; [4]
  IC50: > 1 µM

## CCO[C@@H]1[C@@H](OC)[C@H](C)O[C@@H](O[C@H]2C[C@H]3[C@@H]4C=C5C(=O)[C@H](C)[C@@H](O[C@H]6CC[C@H](N(C)C)[C@@H](C)O6)CCC[C@H](CC)OC(=O)C[C@H]5[C@@H]4C=C(C)[C@@H]3C2)[C@@H]1OC [3-Ethoxyspinosyn L]
[1]; [5]
  IC50: 0.57 ± 0.28 µM

## CO[C@@H]1[C@@H](O[C@@H]2O[C@H](C)[C@@H](O[C@H]3C[C@@](C)(O)[C@@H](OC(=O)CC(C)C)[C@H](C)O3)[C@H](N(C)C)[C@H]2O)[C@@H](CC=O)C[C@@H](C)[C@@H](O)/C=C/C=C/C[C@@H](C)OC(=O)C[C@H]1O [Leucomycin A1]
[1]; P. falciparum, 2 μg/mL, 72 h
  1) Growth (%) at 72 h: 58.63%
[2]
  2) Growth (%) at 120 h: 11.56%
  3) Fold change (72 h/120 h): 5.1

## Ikarugamycin
[1]; [3]
  Mean: 48.31

## Methylcanidine
[1]; P. falciparum, 2 μg/mL, 72 h
  1) Growth (%) at 72 h: 21.12%
[1]; [3]
  Mean: 21.12
[2]
  2) Growth (%) at 120 h: 11.61%
  3) Fold change (72 h/120 h): 1.8

## Thiocillin III
[1]; [5]
  IC50: 0.11 ± 0.006 µM
[1]; [6]
  IC50: < 0.2 µM

## CCO[C@@H]1[C@@H](OC)[C@H](C)O[C@@H](O[C@H]2C[C@H]3[C@@H]4C=C5C(=O)[C@H](C)[C@@H](O)CCC[C@H](CC)OC(=O)C[C@H]5[C@@H]4C=C(C)[C@@H]3C2)[C@@H]1OC [3-Ethoxyspinosyn L pseudoaglycone]
[1]; [5]
  IC50: > 1 µM

## CCO[C@@H]1[C@@H](OC)[C@H](C)O[C@@H](O[C@@H]2C[C@H]3CC[C@@H]4[C@@H](C=C5C(=O)[C@H](C)[C@@H](O)CCC[C@H](CC)OC(=O)C[C@H]54)[C@@H]3C2)[C@@H]1OC [3-Ethoxy-5,6-dihydrospinosyn J pseudoaglycone]
[1]; [5]
  IC50: > 1 µM
[1]; library screen at 2 μg/mL, 3D7, 72 h, DD from the 120 h timepoint
  Screen (P. falciparum): I

## CC[C@H]1CCC[C@H](O)[C@@H](C)C(=O)C2=C[C@@H]3[C@@H](C=C(C)[C@@H]4C[C@@H](O[C@@H]5O[C@@H](C)[C@H](OC)[C@@H](OC)[C@H]5OC)C[C@@H]34)[C@@H]2CC(=O)O1 [Spinosyn D pseudoaglycone]
[1]; [5]
  IC50: > 1 µM

## CC1=C[C@H]2C(=O)O[C@H]3C[C@@H](C/C=C(\C)C[C@@H](C)/C=C/C=C4\CO[C@H]([C@@H]1O)[C@@]42O)O[C@@]1(CC[C@H](C)[C@@H](C)O1)C3 [Milbemycin A3]
[1]; P. falciparum, 2 μg/mL, 72 h
  1) Growth (%) at 72 h: 24.47%
[1]; [3]
  Mean: 24.47
[2]
  2) Growth (%) at 120 h: 17.63%
  3) Fold change (72 h/120 h): 1.4

## 4-O-methylammocidin
[1]; P. falciparum, 2 μg/mL, 72 h
  1) Growth (%) at 72 h: 43.16%
[2]
  2) Growth (%) at 120 h: 13.10%
  3) Fold change (72 h/120 h): 3.3

## COC(=O)C1=CO[C@@H](C)[C@@H]2CN3CCc4c([nH]c5cc(OC)c(OC)cc45)[C@@H]3C[C@H]12 [Isoreserpiline]
[1]; P. falciparum, 2 μg/mL, 72 h
  1) Growth (%) at 72 h: 24.60%
[2]
  2) Growth (%) at 120 h: 4.30%
  3) Fold change (72 h/120 h): 5.7

## CCO[C@@H]1[C@@H](OC)[C@H](C)O[C@@H](O[C@@H]2C[C@H]3CC[C@@H]4[C@@H](C=C5C(=O)[C@H](C)[C@@H](O[C@H]6CC[C@H](N(C)C)[C@@H](C)O6)CCC[C@H](CC)OC(=O)C[C@H]54)[C@@H]3C2)[C@@H]1OC [3-Ethoxy-5,6-dihydrospinosyn J]
[1]; [5]
  IC50: 0.42 ± 0.22 µM
